Columns and labels:
P-gp = settings: cited from earlier work
[1] = format: in vivo, male Sprague-Dawley rats; settings: oral, rats; for bioavailability after N-XBSD administration compared to the free drugs: same administration concentration

mean AUC0-t in the N-XBSD group versus free drugs group ([1]; p<0.05) | bioavailability after N-XBSD administration compared to the free drugs [1] | mean AUC0-t increased in the N-XBSD group compared to the free drugs ([1]; N-XBSD vs free drugs) | SMILES | P-gp substrate (P-gp)
significantly higher | significantly higher |  | O=C1C[C@@H](c2ccc(O[C@@H]3O[C@H](CO)[C@@H](O)[C@H](O)[C@H]3O)cc2)Oc2cc(O)ccc21 [Liquiritin, liquiritin] | substrates of P-gp
 | significantly higher | 122.73% | OC[C@H]1O[C@@H](Oc2cc(O)cc(/C=C/c3ccc(O[C@@H]4O[C@H](CO)[C@@H](O)[C@H](O)[C@H]4O)cc3O)c2)[C@H](O)[C@@H](O)[C@@H]1O [Mulberroside A, mulberroside A] | substrates of P-gp

From article PMC11012829 (International Journal of Nanomedicine, 2024)
